Test systems include 786-0 renal; A549 NSCLC; CCRF-CEM leukemia; DU-145 prostate; EKVX NSCLC; HCC-2998 colon; HOP-62 NSCLC; LOX IMVI melanoma; MDA-N; NCI-H23 lung; NCI-H522 lung; RXF 393 renal; SF-268 CNS; SF-295 CNS; SF-539 CNS; SK-OV-3 ovarian; SNB-19 CNS; SNB-75 CNS; TK-10 renal; U251 CNS.
Common to all, as to assay: NCI anticancer screen, dose series, 48 h

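Each compound was tested at five concentrations against cells in 96-well plates for 48 hours. At the TGI there is no net growth.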

For `CC1(c2nc3ccccc3[nH]2)CCC(C(N)=O)C(C)(C)O1` (stereo not given), the TGI with 786-0 renal, in the assay on A549 NSCLC, with CCRF-CEM leukemia, with DU-145 prostate, in the assay on EKVX NSCLC and in the assay with HCC-2998 colon was greater than 100 µM in each case. Also, the TGI in the assay on HOP-62 NSCLC, with LOX IMVI melanoma, with MDA-N, in the assay with NCI-H23 lung, in the assay on NCI-H522 lung and in the assay with RXF 393 renal was greater than 100 µM each time. Further, the TGI in the assay with SF-268 CNS, in the assay on SF-295 CNS, with SF-539 CNS, in the assay on SK-OV-3 ovarian, in the assay on SNB-19 CNS and in the assay with SNB-75 CNS was greater than 100 µM in each case. Moreover, the TGI with TK-10 renal and in the assay with U251 CNS was greater than 100 µM throughout.
Take `C/C=C/C(C#N)(Cc1ccccc1)OP1(=O)OC(c2ccccc2)C(C)N1C` (stereo not given): the TGI with 786-0 renal is greater than 100 µM; in the assay with A549 NSCLC, greater than 100 µM; in the assay on CCRF-CEM leukemia, 41.2 µM; in the assay with DU-145 prostate, greater than 100 µM; with EKVX NSCLC, greater than 100 µM; in the assay with HCC-2998 colon it was greater than 100 µM. The TGI in the assay with HOP-62 NSCLC, in the assay with LOX IMVI melanoma, with MDA-N, with NCI-H23 lung, in the assay on NCI-H522 lung and with RXF 393 renal was greater than 100 µM each time. The TGI in the assay with SF-268 CNS, in the assay on SF-295 CNS, in the assay on SF-539 CNS, with SK-OV-3 ovarian, with SNB-19 CNS and with SNB-75 CNS was greater than 100 µM in each case. The TGI with TK-10 renal and in the assay on U251 CNS was greater than 100 µM throughout.
Turning to `O=C(NCCNCCNCCNC(=O)c1cc(-c2ccccc2)nc2ccccc12)c1cc(-c2ccccc2)nc2ccccc12`, the TGI was 3.08 µM in the assay on 786-0 renal; 18.6 µM in the assay with A549 NSCLC; greater than 20.5 µM with CCRF-CEM leukemia; 11.8 µM with DU-145 prostate; 18 µM in the assay on EKVX NSCLC; 3.1 µM in the assay on HCC-2998 colon. The TGI worked out at 5.96 µM with HOP-62 NSCLC; 3.03 µM in the assay with LOX IMVI melanoma; 2.97 µM with MDA-N; 13.1 µM in the assay with NCI-H23 lung; 3.13 µM with NCI-H522 lung; 4.34 µM with RXF 393 renal. Further, the TGI was determined as 10.1 µM in the assay on SF-268 CNS; 3.09 µM with SF-295 CNS; 3.85 µM in the assay on SF-539 CNS; 11.1 µM in the assay with SK-OV-3 ovarian; 8.93 µM in the assay with SNB-19 CNS; 3.44 µM in the assay with SNB-75 CNS. Moreover, the TGI with TK-10 renal came to 11.4 µM; with U251 CNS, 3.3 µM.
As to `OCc1ccc2c(c1)CC1(C2)Cc2cc3c(cc2C1)CCC3`, the TGI in the assay with 786-0 renal, with A549 NSCLC, with CCRF-CEM leukemia, with DU-145 prostate, with EKVX NSCLC and in the assay on HCC-2998 colon was greater than 100 µM in each case. The TGI is greater than 46.5 µM in the assay on HOP-62 NSCLC; greater than 100 µM in the assay with LOX IMVI melanoma; 1.74 µM in the assay on MDA-N; greater than 100 µM with NCI-H23 lung; greater than 27.6 µM with NCI-H522 lung; 28.5 µM in the assay on RXF 393 renal. For the same compound, the TGI in the assay on SF-268 CNS was greater than 100 µM; in the assay on SF-295 CNS, greater than 44.5 µM; in the assay on SF-539 CNS it was greater than 100 µM; with SK-OV-3 ovarian it was greater than 100 µM; in the assay on SNB-19 CNS it was greater than 100 µM; with SNB-75 CNS, 8.18 µM. Also, the TGI with TK-10 renal was greater than 79.6 µM; in the assay on U251 CNS, greater than 100 µM.
In the case of `CN1CCCC1=NC#N`, the TGI in the assay with 786-0 renal, in the assay on A549 NSCLC, in the assay with CCRF-CEM leukemia, in the assay with DU-145 prostate, in the assay with EKVX NSCLC and in the assay on HCC-2998 colon was greater than 100 µM in each case. The TGI with HOP-62 NSCLC, in the assay with LOX IMVI melanoma, with MDA-N, in the assay with NCI-H23 lung, in the assay on NCI-H522 lung and in the assay on RXF 393 renal was greater than 100 µM in each case. For the same compound, the TGI in the assay with SF-268 CNS, in the assay on SF-295 CNS, in the assay with SF-539 CNS, with SK-OV-3 ovarian, with SNB-19 CNS and with SNB-75 CNS was greater than 100 µM in each case. In addition, the TGI with TK-10 renal and with U251 CNS was greater than 100 µM in each case.
Regarding `CC(C)(C)CC(C)(C)N=C(N)NO`, the TGI in the assay on 786-0 renal, in the assay on A549 NSCLC, in the assay with CCRF-CEM leukemia, in the assay with DU-145 prostate, with EKVX NSCLC and in the assay with HCC-2998 colon was greater than 100 µM in each case. The TGI with HOP-62 NSCLC, with LOX IMVI melanoma, with MDA-N, in the assay with NCI-H23 lung, in the assay on NCI-H522 lung and in the assay with RXF 393 renal was greater than 100 µM each time. For the same compound, the TGI in the assay on SF-268 CNS was greater than 100 µM; with SF-295 CNS, greater than 100 µM; in the assay with SF-539 CNS it was greater than 100 µM; with SK-OV-3 ovarian, 99.1 µM; with SNB-19 CNS it was greater than 100 µM; with SNB-75 CNS, greater than 100 µM. Moreover, the TGI in the assay with TK-10 renal and in the assay on U251 CNS was greater than 100 µM throughout.
For `Cn1c(=O)c2c(nc(N)n2C2OC(CO)C(O)C2O)n(C)c1=O` (stereo not given), the TGI with 786-0 renal, in the assay with A549 NSCLC, in the assay with CCRF-CEM leukemia, in the assay on DU-145 prostate, with EKVX NSCLC and with HCC-2998 colon was greater than 100 µM throughout. In addition, the TGI with HOP-62 NSCLC, with LOX IMVI melanoma, in the assay on MDA-N, with NCI-H23 lung, in the assay with NCI-H522 lung and with RXF 393 renal was greater than 100 µM each time. In addition, the TGI with SF-268 CNS, in the assay on SF-295 CNS, in the assay on SF-539 CNS, with SK-OV-3 ovarian, in the assay with SNB-19 CNS and with SNB-75 CNS was greater than 100 µM in each case. The TGI with TK-10 renal and with U251 CNS was greater than 100 µM each time.

The values are drawn from PubChem BioAssay (NCI).
